Laboratory results as given in the METLIN SMRT retention time set (Domingo-Almenara et al. 2019).

Experiment: gradient 5% acetonitrile 3 min, to 50% in 2 min, to 85% in 15 min, held 3 min, 100 µL/min
Details: column: Zorbax Extend-C18 2.1 x 50 mm; eluents: water / acetonitrile, 0.1% formic acid
Procedure, shortened: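 Mixtures of ~100 pure standards were chromatographed on a Zorbax Extend-C18 column (2.1 × 50 mm, 1.8 μm) at 100 μL/min using water and acetonitrile, each with 0.1% formic acid. Detection used a quadrupole time-of-flight mass spectrometer in positive and negative ionization mode, and data collection spanned 3 months. Retention time was obtained from adduct peaks picked computationally and each checked manually.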

| Compound | RP-LC retention time [s] |
| --- | --- |
| O=C(NCc1csc(-c2cccs2)n1)C1CCN(C(=O)CCC2CCCC2)CC1 | 878 |
| Cc1ccc(NS(=O)(=O)c2cc(-c3[nH]ncc3C(=O)N(C)C)oc2C)c(Cl)c1 | 707 |
| COc1ccc(S(=O)(=O)N2CCC(c3noc(-c4ccc(Cl)cc4)n3)CC2)cc1 | 1140 |
| O=C(NCc1ccc(F)cc1Cl)c1cc(C2CC2)n2nccc2n1 | 1010 |
| Cc1cc(S(=O)(=O)N2CCc3nc(-c4ccc(Cl)cc4)ncc3C2)ccc1F | 1260 |
| O=C(NCCc1c[nH]c2ccc(Cl)cc12)C1CCN(c2ccncc2)CC1 | 643 |
| CCOCC(=O)N1CCOc2ccc(N(C)C)cc2C1 | 566 |
| CCn1c(C)cc(O)c(C(c2ccccc2[N+](=O)[O-])c2c(O)cc(C)n(CC)c2=O)c1=O | 884 |
| Cc1nc(N2CCN(c3ccccn3)CC2)nc2c1C(=O)CC(c1ccc(F)cc1)C2 (centres undefined) | 755 |
| COc1ccc(OC)c(NC(=O)C2(c3cccs3)CCOCC2)c1 | 917 |
| CC(C)(C)c1ccc(NC(=O)N2CCN(CCNC(=O)c3cccs3)CC2)cc1 | 616 |
| CC1(C(=O)NCc2cccc(Cl)c2)Oc2cccnc2NC1=O (centres undefined) | 723 |
| COc1ccccc1CCNC(=O)C1CN(C(=O)c2ccc(F)c(F)c2)C1 | 731 |
| COC(=O)c1c(C)[nH]c(C(=O)N2CCCC(C(=O)NCCCN3CCCCC3)C2)c1C (centres undefined) | 596 |
| COc1cc([C@@H]2c3cc4c(cc3[C@H](O)[C@@H](CO)[C@@H]2C(=O)N2CCc3ccccc32)OCO4)cc(OC)c1OC | 771 |
| CCOc1ccccc1C(=O)N1CCc2[nH]cnc2C12CCCCC2 | 641 |
| Cc1sc(NC(=O)CC(C)C)nc1-c1ccc2c(c1)NC(=O)CO2 | 822 |
| Cc1nc(-c2cc(S(=O)(=O)NCc3ccc(F)c(Cl)c3)c(C)s2)cs1 | 1010 |
| COCCN1CC2(CCN(S(=O)(=O)c3cccc(Cl)c3)CC2)C1c1ccncc1 (centres undefined) | 631 |
| CCn1ccc2sc(C)c(C(=O)NCCOC)c2c1=O | 610 |
| Cn1c(COc2ccc(Cl)cc2)nc2ccccc21 | 647 |
| Cc1cc(C)c(S(=O)(=O)NCC2CN(C)CC23CCCCC3)c(C)c1 (centres undefined) | 590 |
| Cc1ccn2cc(-c3ccc(NC(=O)c4cccc(Br)c4)cc3)nc2n1 | 692 |

| Compound | RP-LC retention time [s] |
| --- | --- |
| O=C(Nc1cnc(N2CCCCC2)nc1)c1ccc(F)cc1F | 934 |
| CCc1nc(N)n(CC(=O)Nc2ccc(C)c(C)c2)c(=O)c1C | 650 |
| O=C(Nc1ccc2cn[nH]c2c1)c1ccc(F)cc1F | 675 |
| CCn1c(SC)nnc1-c1nn(C)c2c1CN(C(=O)C1CCCCC1)CC2 | 815 |
| CCS(=O)(=O)N1CC(=O)N(c2ccc(Cl)cc2)C(C)(C(=O)NCc2ccc(F)cc2)C1 (centres undefined) | 840 |
| Cn1cnnc1SCCNC(=O)Cc1noc2ccccc12 | 591 |
| Cc1ccccc1C(=O)Nc1nnc(SCc2nnc(-c3ccccc3C)o2)s1 | 948 |
| Brc1cccc(-c2nc3ccccn3c2Nc2ccc3c(c2)OCCO3)c1 | 714 |
| COC(=O)c1ccc(-c2nc3cnccn3c2Nc2ccccc2OC)cc1 | 893 |
| O=C(Nc1nnc(-c2ccsc2)o1)c1ccc2nsnc2c1 | 698 |
| CCOc1cc(C(=O)Nc2nc(-c3ccc(OC)cc3)c(C)s2)cc(OCC)c1OCC | 1360 |
| CCN(CC)CCCNC(=O)C1CCCN(c2ncnc3c2nc2n3CCCCC2)C1 (centres undefined) | 556 |
| CSc1ccc(Cc2nnc(NC(=O)c3nn(C)cc3C)o2)cc1 | 694 |
| Cc1nc(NC2CCCCC2)sc1C(=O)Nc1ccc(F)cc1F | 855 |
| Cc1sc(NC(=O)C(F)(F)F)nc1-c1ccc2c(c1)NC(=O)C(C)O2 (centres undefined) | 840 |
| CN(C)c1ccc(C(CNC(=O)c2ccc(Br)o2)N2CCCC2)cc1 (centres undefined) | 572 |
| CCCNC(=O)N(C1CCOCC1)C1CCN(C(=O)Cc2ccsc2)CC1 | 703 |
| C=CCN1CCN(c2nc3cc(C(=O)OC)ccc3c(=O)n2-c2ccc(Cl)cc2)CC1 | 681 |
| Cc1cccc(NC(=O)C(=O)NCc2ccccn2)n1 | 565 |
| COc1ccc(OC)c(C(O)CN2CCN(c3ccc(C)cc3)CC2)c1 (centres undefined) | 653 |
| O=C(Cc1csc(SCC(=O)c2cccs2)n1)Nc1ccc(F)c(Cl)c1 | 923 |
| CC(=O)Nc1ccc(NC(=O)C2CCN(S(=O)(=O)c3ccc4c(c3)CCCC(=O)N4)CC2)cc1 | 644 |

The next lines start with the values.

| RP-LC retention time [s] | Compound |
| --- | --- |
| 1200 | Cc1nn(-c2ccc(F)cc2)c2nc(N3CCCC(C(=O)NCc4cccc(Cl)c4)C3)sc12 (centres undefined) |
| 976 | Cn1cnc2c(C(=O)Nc3ccc(F)c(Cl)c3)nn(-c3ccccc3)c2c1=O |
| 809 | CCc1ccc(NC(=O)CSc2nc(N3CCCCC3)nc3ccccc23)cc1 |
| 1040 | Cc1nc2nc(-c3ccc(C(C)(C)C)cc3)nn2c(C)c1CC(=O)N1CCCCC1 |
| 898 | O=C(Cn1ccc2ccc(N3CCOCC3)nc21)N1CCN(c2ccc(F)cc2)CC1 |
| 688 | O=C(CSc1nccnc1Sc1ccccc1)N1CCN(c2ccccn2)CC1 |
| 938 | Cc1cccc(OCc2nc(CCN(C)C(=O)NC3CCCCC3)no2)c1 |
| 874 | Cc1cc(C)cc(NC(=O)NC2CCN(c3ccc(F)c(C)c3)C2=O)c1 (centres undefined) |
| 733 | O=C(CSc1nnnn1-c1cccc(C(F)(F)F)c1)N1CCOCC1 |
| 565 | Cc1ccc(Nc2nc(N)nc(CN3CCC(C(N)=O)CC3)n2)cc1 |
| 823 | Cc1ccc(NC(=O)N2CCCC2c2cc(C)on2)c(C)c1 (centres undefined) |
| 832 | CCOC(=O)c1cccc(Nc2nc(-c3cccnc3)nc3ccccc23)c1 |
| 632 | CN1CCN(C(=O)CN2C(=O)CCCc3cc(S(=O)(=O)N4CCCCCC4)ccc32)CC1 |
| 885 | COc1ccc(-c2cc3nn(CC(=O)Nc4cc(F)ccc4C)c(=O)n3c(C)n2)cc1 |
| 664 | CCc1cc(C(=O)N2CCN(CC)CC2)nc2cc(-c3ccsc3)nn12 |
| 701 | O=C(Cn1nc2nc(Nc3ccc(F)cc3)ccn2c1=O)NC1CCCC1 |
| 823 | CCc1ccccc1S(=O)(=O)N1CCC(N(C(=O)COC)C2CCOCC2)CC1 |
| 903 | Cc1nc(-c2ccccc2)cc2nn(CC(=O)N3CCC(C)CC3)c(=O)n12 |
| 828 | Cc1cc(=O)n(CC(=O)Nc2ccc(F)cc2)c(N2CCN(c3ccccc3)CC2)n1 |
| 804 | Cn1cc(-c2cc3n(n2)CCCN3C(=O)CCC(=O)NCc2ccccc2)c2ccccc21 |
| 653 | O=C(NC1CC1)c1[nH]c2ccccc2c1N1CCCC1=O |
| 839 | O=C(NC1CC1)c1ccc(OCC2CCN(C(=O)c3cc(F)ccc3Cl)CC2)cc1 |

| RP-LC retention time [s] | Compound |
| --- | --- |
| 894 | Cc1nc(-c2noc(-c3ccccc3)n2)cn1CC(=O)N1CCN(c2ccccc2F)CC1 |
| 619 | COCCN1C(=O)c2ccccc2C(C(=O)N2CCN(c3ccccn3)CC2)C1c1ccc(F)cc1 (centres undefined) |
| 732 | Cc1ccc(CNC(=O)C2CCN(S(=O)(=O)c3cn(C)cn3)CC2)cc1 |
| 766 | Cc1ccc(CNC(=O)C2(C)Cn3nc(C(=O)NCc4ccccc4)cc3C(=O)N2C)cc1 (centres undefined) |
| 623 | Cc1ccc(NC(=O)N2CCN(C3=CC4=NCC(C)N4C=N3)CC2)c(C)c1 (centres undefined) |
| 650 | CCNc1cc(N2CCC(CCC(=O)NCc3ccccc3OC)CC2)ncn1 |
| 971 | O=C(Nc1ccccc1C(F)(F)F)C1CCCN(c2ccc(=O)n(-c3cccc(Cl)c3)n2)C1 (centres undefined) |
| 830 | CCC(C)NC(=O)C1CCN(S(=O)(=O)c2c(C)nn(-c3ccccc3)c2C)CC1 (centres undefined) |
| 875 | Cc1cccc(S(=O)(=O)NC2CCN(c3ccccc3)C2=O)c1 (centres undefined) |
| 836 | CC(C)CC(C)NC(=O)c1ccc(CN2C(=O)C3CCCN3C(=O)c3ccccc32)cc1 (centres undefined) |
| 1030 | CCOc1ccccc1NC(=O)C1CCN(S(=O)(=O)c2c(C)nn(-c3ccccc3)c2C)CC1 |
| 689 | CCc1ccc(-c2cc3c(=O)n(CC(=O)NCC4CCCN4CC)ncn3n2)cc1 (centres undefined) |
| 1040 | Cc1ccc(Cl)cc1NC(=O)N1CCCC(C)(C(=O)NCc2ccccc2)C1 (centres undefined) |
| 906 | COc1ccccc1CNC(=O)c1nnc(-c2ccc(S(=O)(=O)N3CCCC3)cc2)o1 |
| 796 | O=C(c1ccc(Br)o1)N1CCN(c2cc(-c3ccccc3)[nH]n2)CC1 |
| 622 | COc1ccc(CC(=O)N2CCC(c3nncn3C(C)C)CC2)cc1 |
| 797 | Cc1ccc(CNC(=O)N2CCC3(C2)C(=O)N(C)c2ccccc23)cc1 (centres undefined) |
| 945 | Cc1ccccc1-c1noc(CCn2nc(-c3ccc4c(c3)OCO4)ccc2=O)n1 |
| 689 | Cc1ccc(NC(=O)N2CCN(Cc3nc4ccccc4o3)CC2)cc1 |
| 779 | CCS(=O)(=O)N1CC(=O)N(c2cccc(F)c2)C(C)(C(=O)NCc2ccccc2)C1 (centres undefined) |
| 881 | Cc1cccc(N2CCN(C(=O)C3CCN(c4cnc5nccnc5c4)CC3)CC2)c1C |
| 715 | Cc1cccc(C)c1NC(=O)N1CC(n2cnnc2-c2ccccc2)C1 |
